Read-outs that look alike come from different tables or passages of the source. Marks after values point to notes of the source that are not given here.
Assays:
aldose reductase = molecular target: T1, aldose reductase (Sus scrofa, UniProt P80276); experiment: Aldose reductase inhibitory action (method of S. Hayman et al., absorbance change at 340 nm); assay type: biochemical, swine
T1 construct: swine lenses freeze-stored at -80°C were homogenized with distilled water; from tissue; host or cells: swine lens
Method: That is, swine lenses freeze-stored at -80°C were homogenized with distilled water and cetrifuged at 10,000 G for 15 minutes. The supernatant was prepared into a 40% ammonium sulfate solution and subjected to cetrifugation at 10,000 G for 10 minutes.
The activity of aldose reductase was determined by the above-mentioned method of S. Hayman et al. That is, the above-mentioned enzyme solution (25 µl) and a drug solution (25 µl) dissolved in 1% DMSO at various concentrations were added to a 40 mM phosphate buffer (200 µl, pH 6.2) containing final concentrations of 0.4 M lithium sulfate, 0.1 mM NADPH (reduced type nicotinamide adenine dinucleotide phosphate) and 3 mM dl-glyceraldehyde as a substrate. […] The test drug number indicates the example number to be mentioned later. […]

ICR mice = experiment: Acute toxicity of a single oral dose; assay type: in vivo; conditions: 300 mg/kg single oral dose, male ICR mice, observation for 14 days
Method: Normal ICR mice (male, 7 weeks old, 5 per group) were fasted for 18 hours and the compound (300 mg/kg) of Example 9 was orally administered as a 0.5% carboxymethylcellulose suspension. To the control group, a 0.5% carboxymethylcellulose solution alone was orally administered and observation was continued for 14 days thereafter, during which period the mice were allowed to take feed and water freely.

[1] = system: sorbitol accumulation in tissues; experiment: Inhibitory action on sorbitol accumulation in tissues of rats with experimental diabetes (streptozotocin); assay type: in vivo, Sprague-Dawley rats; conditions: percent of control (100%), oral at 4, 8 and 24 hours after streptozotocin, Example 9 at 10 mg/kg, EPALRESTAT at 30 mg/kg, 3 hours after final administration; for Sorbitol accumulation, nerve: sciatic nerve
Method: Sprague-Dawley rats (male, 6 weeks old, 5-6 per group) were fasted for 18 hours and injected with streptozotocin (SIGMA, 60 mg/kg) via the tail vein under etherization to prepare rats with diabetes.
The test drugs were orally administered at 4, 8 and 24 hours after the injection of streptozotocin. The compound of Example 9 was administered at 10 mg/kg and EPALRESTAT was administered at 30 mg/kg as a 0.5% carboxymethylcellulose suspension, respectively. During the administrations, the rats were raised under free access to feed and water and the sorbitol content in the tissues (erythrocytes, sciatic nerve, lens) was determined 3 hours after the final administration, according to the enzyme method of H.Y. Bergmeyer et al. [Methods of Enzymatic Analysis, vol. 3, 1323-1330 (1974)] with the use of SDH (sorbitol dehydrogenase) and NAD (β-nicotinamide adenine dinucleotide). The results (sorbitol accumulation) are expressed in percent (%) relative to the value of a control group administered with a 0.5% carboxymethylcellulose solution (solvent) instead of the drug, which was taken as 100%.

[2] = swine lens enzyme, 3 mM dl-glyceraldehyde as substrate, 0.1 mM NADPH, pH 6.2, 25°C, read-out: IC₅₀

IC50 (aldose reductase; [2]) [nM] | IC50 (aldose reductase) [nM] | SMILES | death cases (ICR mice) | body weight transition (ICR mice; compared with control group) | Sorbitol accumulation, erythrocytes [1] | Sorbitol accumulation, lens [1] | Sorbitol accumulation, nerve [1]
12 | – | O=C(O)CC1Sc2ncccc2N(Cc2nc3c(F)c(F)ccc3s2)C1=O (stereo not shown) [Compound of Ex.10, 2-[4-(4,5-Difluorobenzothiazol-2-yl)methyl-3-oxo-3,4-dihydro-2H-pyrido[2,3-b][1,4]thiazin-2-yl]acetic acid] | – | – | – | – | –
12 | – | O=C(O)CC1Sc2ncccc2N(Cc2nc3c(Cl)c(Cl)ccc3s2)C1=O (stereo not shown) [Compound of Ex.12, 2-[4-(4,5-Dichlorobenzothiazol-2-yl)methyl-3-oxo-3,4-dihydro-2H-pyrido[2,3-b][1,4]thiazin-2-yl]acetic acid] | – | – | – | – | –
12 | – | O=C(O)CC1Sc2cnccc2N(Cc2nc3c(F)c(F)cc(F)c3s2)C1=O (stereo not shown) [Compound of Ex.14, 2-[4-(4,5,7-Trifluorobenzothiazol-2-yl)methyl-3-oxo-3,4-dihydro-2H-pyrido[3,4-b][1,4]thiazin-2-yl]acetic acid] | – | – | – | – | –
– | 21 | CC(/C=C1\SC(=S)N(CC(=O)O)C1=O)=C\c1ccccc1 [EPALRESTAT, reference compound] | – | – | 66.5% | 89.1% | 99.9%

SMILES | IC50 (aldose reductase; [2]) [nM] | IC50 (aldose reductase) [nM] | death cases (ICR mice) | body weight transition (ICR mice; compared with control group) | Sorbitol accumulation, erythrocytes [1] | Sorbitol accumulation, lens [1] | Sorbitol accumulation, nerve [1]
O=C(O)CC1Sc2ncccc2N(Cc2nc3c(F)c(F)cc(F)c3s2)C1=O (stereo not shown) [Compound of Ex. 9, 2-[4-(4,5,7-Trifluorobenzothiazol-2-yl)methyl-3-oxo-3,4-dihydro-2H-pyrido[2,3-b][1,4]thiazin-2-yl]acetic acid] | 11 | – | no death case | showed transition in the same manner as in the control group | 59.0* % | 66.2* % | 3.3* %

— patent publication EP0644194A1, “PYRIDOTHIAZINEACETIC ACID COMPOUND, PROCESS FOR PRODUCING THE SAME, AND USE THEREOF” (THE GREEN CROSS CORPORATION, priority 1993, dated 1994)
